According to patent US20250064945A1 (Arvinas Operations, Inc., priority 2021, published 2025):

Molecular target: T1, BRM (Homo sapiens, UniProt P51531)
T1 construct: In-Cell Western Screen of BRM Degradation in SW1573 Cells; endogenous in cells; host or cells: SW1573 cells
Test: Western blot / In-Cell Western screen of BRM degradation in SW1573 cells
Assay type: cell-based
Conditions: overnight (18-20 hours) treatment; for Dmax: read-out: Dmax (%) (% degraded)
Protocol: Western Blot Screen of BRM Degradation in SW1573 Cells
(§1) To assess BRM degradation (Dmax and DC50) cells were seeded at 8000/well in 96-well black/clear-bottom plates in 180 μL DMEM growth media (containing 1% pen-strep, 1% HEPES and 10% FBS) per well. Plates were incubated overnight to allow adhesion. The next morning cells were treated by adding 20 μL of 10× target compound concentration (1% DMSO) to appropriate wells and returned to incubator for overnight (18-20 hours). The final DMSO concentration was 0.1%.
For lysing, adherent cells were washed once with 100 μL of DPBS. Cells were lysed in 40 μL of 1× RIPA+HALT protease inhibitor on ice for 10 minutes and frozen until use at −80° C. Thawed lysates were cleaned by filtration in 1.2 µm filter plates, or alternatively, were spun clean at 2300 g at 4° C. for 30 minutes.
For blotting, for each Western sample 30 μL of lysate was added to 10 μL of 4×LDS sample buffer, then denatured at 95° C. for 5 minutes in the thermal cycler and placed on ice. Samples were loaded on 4-15% Tris/Glycine gels and run for 25 minutes at 250 constant volts in 1×Tris/Glycine buffer with 4 μL of ladder and 12 μL of each sample loaded for each blot. Protein was transferred from gels to NC with BioRad Turbo dry-transfer unit with the Turbo/midi default program. All blots were rinsed with ddH2O and blocked for 1 hour at room temperature in 5% BSA in TBST (0.1%) on rocker. Blots were exposed to primary antibody in 5% BSA in TBST (0.1%) overnight at 4° C. on rocker (1:1000 for BRM (Cell Signaling Tech. cat #11966) and 1:2000 for alpha-tubulin (Cell Signaling Tech. cat #3873), a control protein. Blot was washed with TBST (0.1%) three times for 5 minutes on rocker at room temperature. Secondary antibody was added, and blots were incubated on a room temperature rocker for 1 hour with 1:18,000 anti-rabbit-HRP and/or anti-mouse-HRP in 5% BSA in TBST (0.1%). Blots were washed three times in TBST (0.1%) for 5 minutes at room temperature on the rocker. Signal was developed with Femto Maximum Sensitivity substrate for 4 minutes and blots read on ChemiDoc™.
In-Cell Western Screen of BRM Degradation in SW1573 Cells
as §1, with “DC50),” for “DC50)”, “10×” for “10× target”, “compound” for “compound concentration”
For processing, the plates were removed from incubator, the media was removed, and immediately 200 μL of cold (4° C.) DPBS was added to all wells. DPBS was then removed, and 50 μL of 4% paraformaldehyde (PFA) in DPBS (4° C.) was added to all wells, and the plates were incubated at room temperature for 20 minutes. PFA was then removed, and 200 μL of TBS-T containing 0.5% Triton X-100 was added to all wells, and the plates were incubated at room temperature for 30 minutes. TBS-T containing 0.5% Triton X-100 was then removed, and 50 μL of Li-Cor blocking solution was added, and the plates were incubated at room temperature for a minimum of one hour. The blocking solution was removed, and 50 μL of Li-Cor blocking solution containing primary antibody cocktail was added (1:1000 for BRM (Cell Signaling Tech. cat #11966) and 1:2000 for alpha-tubulin (Sigma cat #T6074), a control protein. Plates were then placed in cold room until the next day.
The next day plates were washed three times with TBS-T, 200 μL per well. Fifty […] of secondary antibody cocktail in LI-COR blocking solution (anti-rabbit_800 nm and anti-mouse_680 nm) was added to all wells (diluted 1:5000). The plates were incubated at room temperature for at least one hour while protected from light. The plates were washed twice with TBS-T, 200 μL per well. […]

T1 sequence (P51531 whole entry): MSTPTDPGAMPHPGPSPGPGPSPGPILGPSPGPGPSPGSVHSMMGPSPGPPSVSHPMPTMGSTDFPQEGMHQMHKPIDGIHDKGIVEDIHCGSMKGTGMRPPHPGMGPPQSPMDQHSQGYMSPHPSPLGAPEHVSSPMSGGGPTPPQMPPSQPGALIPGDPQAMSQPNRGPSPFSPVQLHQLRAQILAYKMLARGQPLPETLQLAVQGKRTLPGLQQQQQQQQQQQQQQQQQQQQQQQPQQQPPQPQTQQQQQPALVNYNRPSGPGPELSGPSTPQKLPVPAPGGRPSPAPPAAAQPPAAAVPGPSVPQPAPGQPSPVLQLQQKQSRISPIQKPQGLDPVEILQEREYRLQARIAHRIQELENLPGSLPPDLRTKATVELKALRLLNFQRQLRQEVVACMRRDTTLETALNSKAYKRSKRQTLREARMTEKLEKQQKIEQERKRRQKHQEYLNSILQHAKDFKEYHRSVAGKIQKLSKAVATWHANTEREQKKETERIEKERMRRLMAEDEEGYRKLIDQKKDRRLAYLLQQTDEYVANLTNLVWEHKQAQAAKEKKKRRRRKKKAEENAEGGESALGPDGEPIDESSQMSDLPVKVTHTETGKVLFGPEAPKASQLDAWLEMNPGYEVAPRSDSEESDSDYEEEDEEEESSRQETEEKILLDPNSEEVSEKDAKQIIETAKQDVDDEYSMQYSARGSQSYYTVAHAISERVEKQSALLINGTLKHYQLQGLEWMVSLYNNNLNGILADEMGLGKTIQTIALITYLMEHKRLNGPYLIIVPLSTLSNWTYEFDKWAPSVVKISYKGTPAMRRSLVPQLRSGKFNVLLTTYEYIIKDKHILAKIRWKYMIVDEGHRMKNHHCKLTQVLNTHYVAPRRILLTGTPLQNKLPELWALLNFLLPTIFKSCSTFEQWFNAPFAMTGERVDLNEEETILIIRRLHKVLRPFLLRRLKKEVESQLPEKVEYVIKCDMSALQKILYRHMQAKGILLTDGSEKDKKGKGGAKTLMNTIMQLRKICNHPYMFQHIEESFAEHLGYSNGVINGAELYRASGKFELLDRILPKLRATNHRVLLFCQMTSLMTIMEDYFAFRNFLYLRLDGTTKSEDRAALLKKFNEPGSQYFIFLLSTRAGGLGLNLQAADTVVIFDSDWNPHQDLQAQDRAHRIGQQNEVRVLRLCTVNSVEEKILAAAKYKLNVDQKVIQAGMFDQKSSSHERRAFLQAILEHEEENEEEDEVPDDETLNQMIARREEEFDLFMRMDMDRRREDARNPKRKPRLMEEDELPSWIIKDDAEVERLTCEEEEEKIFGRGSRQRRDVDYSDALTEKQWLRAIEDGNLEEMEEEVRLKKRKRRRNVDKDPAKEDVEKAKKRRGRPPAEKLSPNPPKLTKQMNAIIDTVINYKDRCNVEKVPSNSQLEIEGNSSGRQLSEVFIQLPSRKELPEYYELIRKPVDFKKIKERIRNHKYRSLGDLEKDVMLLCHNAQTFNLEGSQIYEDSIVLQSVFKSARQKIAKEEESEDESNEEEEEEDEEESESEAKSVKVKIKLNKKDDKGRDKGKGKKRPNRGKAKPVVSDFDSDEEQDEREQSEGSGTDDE

Compound | DC50 | Dmax
Cc1ncsc1-c1ccc([C@H](C)NC(=O)[C@@H]2C[C@@H](O)CN2C(=O)[C@@H](c2cc(N3CCC(CN4CCC(O[C@H]5C[C@H](N6CCN(C[C@@H]7[C@H]8CN(c9cc(-c%10ccccc%10O)nnc9N)C[C@@H]78)CC6)C5)CC4)CC3)no2)C(C)C)cc1 [Compound 9, (2S,4R)-4-hydroxy-N-[(1S)-1-[4-(4-methyl-1,3-thiazol-5-yl)phenyl]ethyl]-1-[(2R)-3-methyl-2-{3-[4-({4-[(1r,3r)-3-(4-{[(1R,5S,6S)-3-[3-amino-6-(2-hydroxyphenyl)pyridazin-4-yl]-3-azabicyclo[3.1.0]hexan-6-yl]methyl}piperazin-1-yl)cyclobutoxy]piperidin-1-yl}methyl)piperidin-1-yl]-1,2-oxazol-5-yl}butanoyl]pyrrolidine-2-carboxamide] | < 0.0025 µM | > 75%
Cc1ncsc1-c1ccc([C@H](C)NC(=O)[C@@H]2C[C@@H](O)CN2C(=O)[C@@H](c2cc(N3CCC(CN4CCC(O[C@H]5C[C@H](N6CCC(CN7CC8(C7)CN(c7cc(-c9ccccc9O)nnc7N)CCO8)CC6)C5)CC4)CC3)no2)C(C)C)cc1 [Compound 11, (2S,4R)-4-hydroxy-N-[(1S)-1-[4-(4-methyl-1,3-thiazol-5-yl)phenyl]ethyl]-1-[(2R)-3-methyl-2-{3-[4-({4-[(1r,3r)-3-[4-({8-[3-amino-6-(2-hydroxyphenyl)pyridazin-4-yl]-5-oxa-2,8-diazaspiro[3.5]nonan-2-yl}methyl)piperidin-1-yl]cyclobutoxy]piperidin-1-yl}methyl)piperidin-1-yl]-1,2-oxazol-5-yl}butanoyl]pyrrolidine-2-carboxamide] | 0.0025 to 0.01 µM | > 75%
Cc1ncsc1-c1ccc([C@H](C)NC(=O)[C@@H]2C[C@@H](O)CN2C(=O)[C@@H](c2cc(N3CCC(CN4CCC(O[C@H]5C[C@H](n6cc(CN7C8CCC7CN(c7cc(-c9ccccc9O)nnc7N)C8)cn6)C5)CC4)CC3)no2)C(C)C)cc1 [Compound 12, (2S,4R)-4-hydroxy-N-[(1S)-1-[4-(4-methyl-1,3-thiazol-5-yl)phenyl]ethyl]-1-[(2R)-3-methyl-2-{3-[4-({4-[(1r,3r)-3-[4-({3-[3-amino-6-(2-hydroxyphenyl)pyridazin-4-yl]-3,8-diazabicyclo[3.2.1]octan-8-yl}methyl)-1H-pyrazol-1-yl]cyclobutoxy]piperidin-1-yl}methyl)piperidin-1-yl]-1,2-oxazol-5-yl}butanoyl]pyrrolidine-2-carboxamide] | 0.0025 to 0.01 µM | > 75%
Cc1ncsc1-c1ccc([C@H](C)NC(=O)[C@@H]2C[C@@H](O)CN2C(=O)[C@@H](c2cc(N3CCC(CN4CCC(O[C@H]5C[C@H](N6CCC(CN7CCN(c8cc(-c9ccccc9O)nnc8N)CC78COC8)CC6)C5)CC4)CC3)no2)C(C)C)cc1 [Compound 13, (2S,4R)-4-hydroxy-N-[(1S)-1-[4-(4-methyl-1,3-thiazol-5-yl)phenyl]ethyl]-1-[(2R)-3-methyl-2-{3-[4-({4-[(1r,3r)-3-[4-({8-[3-amino-6-(2-hydroxyphenyl)pyridazin-4-yl]-2-oxa-5,8-diazaspiro[3.5]nonan-5-yl}methyl)piperidin-1-yl]cyclobutoxy]piperidin-1-yl}methyl)piperidin-1-yl]-1,2-oxazol-5-yl}butanoyl]pyrrolidine-2-carboxamide] | < 0.0025 µM | > 75%
Cc1ncsc1-c1ccc([C@H](C)NC(=O)[C@@H]2C[C@@H](O)CN2C(=O)[C@@H](c2cc(N3CCC(CN4CCC(O[C@H]5C[C@H](n6ccc(CN7C8CCC7CN(c7cc(-c9ccccc9O)nnc7N)C8)n6)C5)CC4)CC3)no2)C(C)C)cc1 [Compound 14, (2S,4R)-4-hydroxy-N-[(1S)-1-[4-(4-methyl-1,3-thiazol-5-yl)phenyl]ethyl]-1-[(2R)-3-methyl-2-{3-[4-({4-[(1r,3r)-3-[3-({3-[3-amino-6-(2-hydroxyphenyl)pyridazin-4-yl]-3,8-diazabicyclo[3.2.1]octan-8-yl}methyl)-1H-pyrazol-1-yl]cyclobutoxy]piperidin-1-yl}methyl)piperidin-1-yl]-1,2-oxazol-5-yl}butanoyl]pyrrolidine-2-carboxamide] | ≥ 0.03 µM | –
Cc1ncsc1-c1ccc([C@H](C)NC(=O)[C@@H]2C[C@@H](O)CN2C(=O)[C@@H](c2cc(OCCN3CCN(CCOc4cc(N5CCN(c6cc(-c7ccccc7O)nnc6N)CC56COC6)ccn4)CC3)no2)C(C)C)cc1 [Compound 15, (2S,4R)-1-[(2R)-2-{3-[2-(4-{2-[(4-{8-[3-amino-6-(2-hydroxyphenyl)pyridazin-4-yl]-2-oxa-5,8-diazaspiro[3.5]nonan-5-yl}pyridin-2-yl)oxy]ethyl}piperazin-1-yl)ethoxy]-1,2-oxazol-5-yl}-3-methylbutanoyl]-4-hydroxy-N-[(1S)-1-[4-(4-methyl-1,3-thiazol-5-yl)phenyl]ethyl]pyrrolidine-2-carboxamide] | < 0.0025 µM | > 75%
Cc1ncsc1-c1ccc([C@H](C)NC(=O)[C@@H]2C[C@@H](O)CN2C(=O)[C@H](c2cc(OCCN3CCN(CCOc4cc(N5CCN(c6cc(-c7ccccc7O)nnc6N)CC56COC6)ccn4)CC3)no2)C(C)C)cn1 [Compound 16, (2S,4R)-1-[(2S)-2-{3-[2-(4-{2-[(4-{8-[3-amino-6-(2-hydroxyphenyl)pyridazin-4-yl]-2-oxa-5,8-diazaspiro[3.5]nonan-5-yl}pyridin-2-yl)oxy]ethyl}piperazin-1-yl)ethoxy]-1,2-oxazol-5-yl}-3-methylbutanoyl]-4-hydroxy-N-[(1S)-1-[6-(4-methyl-1,3-thiazol-5-yl)pyridin-3-yl]ethyl]pyrrolidine-2-carboxamide] | ≥ 0.03 µM | –
Cc1ncsc1-c1ccc([C@H](C)NC(=O)[C@@H]2C[C@@H](O)CN2C(=O)[C@@H](c2cc(OCCN3CCN(CCOc4cc(N5CCN(c6cc(-c7ccccc7O)nnc6N)CC56COC6)ccn4)CC3)no2)C(C)C)cn1 [Compound 17, (2S,4R)-1-[(2R)-2-{3-[2-(4-{2-[(4-{8-[3-amino-6-(2-hydroxyphenyl)pyridazin-4-yl]-2-oxa-5,8-diazaspiro[3.5]nonan-5-yl}pyridin-2-yl)oxy]ethyl}piperazin-1-yl)ethoxy]-1,2-oxazol-5-yl}-3-methylbutanoyl]-4-hydroxy-N-[(1S)-1-[6-(4-methyl-1,3-thiazol-5-yl)pyridin-3-yl]ethyl]pyrrolidine-2-carboxamide] | 0.0025 to 0.01 µM | > 75%
Cc1ncsc1-c1ccc([C@H](C)NC(=O)[C@@H]2C[C@@H](O)CN2C(=O)[C@@H](c2cc(N3CCC(CN4CCC5(CC4)CC(N4CCO[C@@H](CN6CC7(CCN(c8cc(-c9ccccc9O)nnc8N)CC7)C6)C4)C5)CC3)no2)C(C)C)cc1 [Compound 18, (2S,4R)-1-[(2R)-2-{3-[4-({2-[(2S)-2-({7-[3-amino-6-(2-hydroxyphenyl)pyridazin-4-yl]-2,7-diazaspiro[3.5]nonan-2-yl}methyl)morpholin-4-yl]-7-azaspiro[3.5]nonan-7-yl}methyl)piperidin-1-yl]-1,2-oxazol-5-yl}-3-methylbutanoyl]-4-hydroxy-N-[(1S)-1-[4-(4-methyl-1,3-thiazol-5-yl)phenyl]ethyl]pyrrolidine-2-carboxamide] | 0.01 to 0.03 µM | > 75%
